Results reported in ChEMBL document CHEMBL1201862, “PubChem BioAssay data set” (2004).
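1) Cells in 96-well plates. 2) Compound, 48 h, 5 concentrations. 3) Linear interpolation between surrounding doses. 4) Unreached endpoint = highest concentration. GI50 is the concentration that inhibits growth by half.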 Activity calls are given as the source filed them. Rule as the data show it: active = GI50 up to about 1.1 µM and inactive = higher.

Columns and labels:
Assay in all cases: DTP human tumour cell line panel, 48 h
DU-145 = tested on: DU-145
NCI-H460 = tested on: NCI-H460
NCI-H23 = tested on: NCI-H23
SK-OV-3 = tested on: SK-OV-3
SK-MEL-5 = tested on: SK-MEL-5
CCRF-CEM = tested on: CCRF-CEM
SK-MEL-2 = tested on: SK-MEL-2
SF-295 = tested on: SF-295
HCT-116 = tested on: HCT-116
MCF7 = tested on: MCF7
CAKI-1 = tested on: CAKI-1
786-0 = tested on: 786-0
SF-539 = tested on: SF-539
UACC-257 = tested on: UACC-257
EKVX = tested on: EKVX
A549 = tested on: A549
U-251 = tested on: U-251
MDA-N = tested on: MDA-N
OVCAR-5 = tested on: OVCAR-5
SN12C = tested on: SN12C
IGROV-1 = tested on: IGROV-1
K562 = tested on: K562
OVCAR-4 = tested on: OVCAR-4
RXF 393 = tested on: RXF 393
HOP-62 = tested on: HOP-62
TK-10 = tested on: TK-10
HCT-15 = tested on: HCT-15
MOLT-4 = tested on: MOLT-4
BT-549 = tested on: BT-549
Malme-3M = tested on: Malme-3M
NCI-H522 = tested on: NCI-H522
HCC 2998 = tested on: HCC 2998
MDA-MB-435 = tested on: MDA-MB-435
T47D = tested on: T47D
UACC-62 = tested on: UACC-62
SR = tested on: SR
PC-3 = tested on: PC-3
OVCAR-3 = tested on: OVCAR-3
M14 = tested on: M14
A498 = tested on: A498
COLO 205 = tested on: COLO 205
MDA-MB-231 = tested on: MDA-MB-231

Q: What does the source list for `O=c1c(O)c(-c2ccccc2)oc2c(CP(=O)(O)O)cccc12`?
A: GI50 (DU-145): > 100 µM (inactive); GI50 (NCI-H460): > 100 µM (inactive); GI50 (NCI-H23): > 100 µM (inactive); GI50 (SK-OV-3): > 100 µM (inactive); GI50 (SK-MEL-5): > 100 µM (inactive); GI50 (CCRF-CEM): > 100 µM (inactive); GI50 (SK-MEL-2): > 100 µM (inactive); GI50 (SF-295): > 100 µM (inactive); GI50 (HCT-116): > 100 µM (inactive); GI50 (MCF7): > 100 µM (inactive); GI50 (CAKI-1): > 100 µM (inactive); GI50 (786-0): > 100 µM (inactive); GI50 (SF-539): > 100 µM (inactive); GI50 (UACC-257): > 100 µM (inactive); GI50 (EKVX): > 100 µM (inactive); GI50 (A549): > 100 µM (inactive); GI50 (U-251): > 100 µM (inactive); GI50 (MDA-N): > 100 µM (inactive); GI50 (OVCAR-5): > 100 µM (inactive); GI50 (SN12C): > 100 µM (inactive); GI50 (IGROV-1): > 100 µM (inactive); GI50 (K562): > 100 µM (inactive); GI50 (OVCAR-4): > 100 µM (inactive); GI50 (RXF 393): > 100 µM (inactive); GI50 (HOP-62): 8.55 µM (inactive); GI50 (TK-10): > 100 µM (inactive); GI50 (HCT-15): > 100 µM; GI50 (MOLT-4): > 100 µM (inactive); GI50 (BT-549): > 100 µM (inactive); GI50 (Malme-3M): > 100 µM (inactive); GI50 (NCI-H522): > 100 µM (inactive); GI50 (HCC 2998): > 100 µM (inactive); GI50 (MDA-MB-435): > 100 µM (inactive); GI50 (T47D): > 100 µM (inactive); GI50 (UACC-62): > 100 µM (inactive); GI50 (SR): > 100 µM (inactive); GI50 (PC-3): > 100 µM (inactive); GI50 (OVCAR-3): > 100 µM (inactive); GI50 (M14): > 100 µM (inactive); GI50 (A498): > 100 µM (inactive); GI50 (COLO 205): > 100 µM (inactive); GI50 (MDA-MB-231): > 100 µM (inactive)
